Assay results published in patent publication US7858349B2, “Anti-cancer compounds” (The Regents of the University of Colorado, priority 1999, dated 2010).
pIC50: −log10 of the molar value.

How the values were obtained:
[1] = test system: PC3 PC cells; assay: Inhibition of PC3 tumor growth in vivo in nude mice; set-up: species or system athymic nude mice; key to PC3 In vivo % inhib.: an IC50 value of “0” represents no detectable anti-cancer activity for a drug in a given cell line; “Stim.” indicates the observation of a stimulatory activity on the growth of the cancer cell line; conditions: percent inhibition of tumor growth in nude mice; prostate cancer; i.p. 5 mg/kg/every second day or 10 mg/kg/every fourth day
Method: Compounds having high in vitro cytotoxic activity were tested against implanted tumors in vivo. Athymic nude mice were implanted subcutaneously with suspensions (2 million SHP-77 SCLC cells, 1 million A549 NSCLC cells or 1.5 million PC3 PC cells) in Matrigel suspension. On the eighth day after tumor implantation groups of 5 mice bearing implants were injected intraperitoneally with the compounds being tested at 5 mg/kg/every second day or at 10 mg/kg/every fourth day; control animals were injected with an equal volume of isotonic saline. Less soluble compounds were initially dissolved in dimethyl sulfoxide (DMSO) and diluted with medium. In those cases the control injections contained the same concentration of DMSO. Tumor size was measured with a caliper three times per week. Tumor volume was calculated by the formula: Volume(cc)=3.14×(length)×(width)^2/6 At autopsy tumors were removed and weighed. Tumor inhibition was calculated on both weight and measurement basis. In each Table, an IC50 value of “0” represents no detectable anti-cancer activity for a drug in a given cell line and “Stim.” indicates the observation of a stimulatory activity on the growth of the cancer cell line.

[2] = test system: SCLC strain SHP-77; assay: MTT assay for cell survival, SCLC SHP-77 in vitro; type: cell-based, human; conditions: ED50 for killing of SCLC strain SHP-77 in vitro, 4 days, 0 = no detectable activity, read-out: SCLC SHP-77 IC50

`Cc1ccc(CSC(C)(C)C(NC(=O)C=Cc2c(F)c(F)c(F)c(F)c2F)C(=O)NC2CC(C)(C)NC(C)(C)C2)cc1` (stereo not shown) [Analog M-1430, F5c-Pen(Mbzl)-Atmp] was tested, and the “PC3 In vivo % inhib.” value [1] was 50% and the pIC50 [2] was 5.21.

With `CC1(C)CC(NC(=O)C(Cc2ccc(OCc3c(Cl)cccc3Cl)cc2)NC(=O)C2CCc3ccccc3C2)CC(C)(C)N1` (stereo not shown) [Analog M-1440, Th2n-OC2Y-Atmp] the “PC3 In vivo % inhib.” value [1] was 15% and the pIC50 [2] was 5.46.

In the case of `CCCCC/C=C\C/C=C\C/C=C\C/C=C\CCCC(=O)NC(Cc1ccc(OCc2c(Cl)cccc2Cl)cc1)C(=O)NC1CC(C)(C)NC(C)(C)C1` (stereo not shown) [Analog M-1442, Arac-OC2Y-Atmp], the “PC3 In vivo % inhib.” value [1] was 31% and the pIC50 [2] was 5.19.

With `CC1(C)CC(NC(=O)C(Cc2ccc(OCc3c(Cl)cccc3Cl)cc2)NC(=O)/C=C/c2cc(C(F)(F)F)cc(C(F)(F)F)c2)CC(C)(C)N1` (stereo not shown) [Analog M-1444, Tf2c-OC2Y-Atmp] the “PC3 In vivo % inhib.” value [1] was 11% and the pIC50 [2] was 5.85.

In the case of `CC(C=CC1=C(C)CCCC1(C)C)=CC=CC(C)=CC(=O)NC(Cc1ccc(OCc2c(Cl)cccc2Cl)cc1)C(=O)NC1CC(C)(C)NC(C)(C)C1` (stereo not shown) [Analog M-1446, Ret-OC2Y-Atmp], the “PC3 In vivo % inhib.” value [1] was 60% and the pIC50 [2] was 5.17.

With `CC1(C)CC(NC(=O)C(Cc2ccc(OCc3c(Cl)cccc3Cl)cc2)NC(=O)CC2Cc3ccccc3C2)CC(C)(C)N1` (stereo not shown) [Analog M-1448, 2Ina-OC2Y-Atmp] the “PC3 In vivo % inhib.” value [1] was 11% and the pIC50 [2] was 4.89.

For `CC1(C)CC(NC(=O)C(Cc2ccc(OCc3c(Cl)cccc3Cl)cc2)NC(=O)c2ccccc2O)CC(C)(C)N1` (stereo not shown) [Analog M-1450, 2Hyb-OC2Y-Atmp], the “PC3 In vivo % inhib.” value [1] was “Stim” and the pIC50 [2] was 4.89.

`CC1(C)CC(NC(=O)C(Cc2ccc(OCc3c(Cl)cccc3Cl)cc2)NC(=O)c2c(F)c(N)cc(F)c2F)CC(C)(C)N1` (stereo not shown) [Analog M-1452, Atfb-OC2Y-Atmp] was tested, and the “PC3 In vivo % inhib.” value [1] was “Stim” and the pIC50 [2] was 5.14.

`CC1(C)CC(NC(=O)C(Cc2ccc(OCc3c(Cl)cccc3Cl)cc2)NC(=O)C=Cc2ccc(C=O)cc2)CC(C)(C)N1` (stereo not shown) [Analog M-1456, Fcin-OC2Y-Atmp] was tested, and the “PC3 In vivo % inhib.” value [1] was 17% and the pIC50 [2] was 5.40.

`CC1(C)CC(NC(=O)C(Cc2ccc(OCc3c(Cl)cccc3Cl)cc2)NC(=O)c2ccc(S(N)(=O)=O)cc2)CC(C)(C)N1` (stereo not shown) [Analog M-1458, Sab-OC2Y-Atmp] was tested, and the “PC3 In vivo % inhib.” value [1] was “Stim” and the pIC50 [2] was less than 4.22.

For `CC1(C)CC(NC(=O)C(Cc2ccc(OCc3c(Cl)cccc3Cl)cc2)NC(=O)C=Cc2ccc(B(O)O)cc2)CC(C)(C)N1` (stereo not shown) [Analog M-1460, Bcin-OC2Y-Atmp], the “PC3 In vivo % inhib.” value [1] was 38% and the pIC50 [2] was 4.64.

In the case of `CC1(C)CC(NC(=O)C(Cc2ccc(OCc3c(Cl)cccc3Cl)cc2)NC(=O)C2CC(=O)NC(=O)N2)CC(C)(C)N1` (stereo not shown) [Analog M-1462, Hor-OC2Y-Atmp], the “PC3 In vivo % inhib.” value [1] was 7% and the pIC50 [2] was less than 4.22.

In the case of `CC(C=CC1(O)C(C)=CC(=O)CC1(C)C)=CC(=O)NC(Cc1ccc(OCc2c(Cl)cccc2Cl)cc1)C(=O)NC1CC(C)(C)NC(C)(C)C1` (stereo not shown) [Analog M-1464, Aba-OC2Y-Atmp], the “PC3 In vivo % inhib.” value [1] was 14% and the pIC50 [2] was 4.85.

With `CC1(C)CC(NC(=O)C(Cc2ccc(C#N)cc2)NC(=O)CCCCC2SCC3NC(=O)NC32)CC(C)(C)N1` (stereo not shown) [Analog M-1466, Biot-PCNF-Atmp] the “PC3 In vivo % inhib.” value [1] was 29% and the pIC50 [2] was less than 4.22.

For `Cc1ccc(CSC(C)(C)C(NC(=O)CCCCC2SCC3NC(=O)NC32)C(=O)NC2CC(C)(C)NC(C)(C)C2)cc1` (stereo not shown) [Analog M-1468, Biot-Pen(Mbzl)-Atmp], the “PC3 In vivo % inhib.” value [1] was 46% and the pIC50 [2] was less than 4.22.

`Cc1ccc(CSC(C)(C)C(NC(=O)CCCc2c[nH]c3ccccc23)C(=O)NC2CC(C)(C)NC(C)(C)C2)cc1` (stereo not shown) [Analog M-1474, 3Ibu-Pen(Mbzl)-Atmp] was tested, and the “PC3 In vivo % inhib.” value [1] was “Stim” and the pIC50 [2] was 5.11.

`CC1(C)CC(NC(=O)C(Cc2ccc(OCc3c(Cl)cccc3Cl)cc2)NC(=O)c2ccc(C(F)(F)F)cc2)CC(C)(C)N1` (stereo not shown) [Analog M-1484, Ptmb-OC2Y-Atmp] was tested, and the “PC3 In vivo % inhib.” value [1] was “Stim” and the pIC50 [2] was 5.74.

With `Cc1ccc(CSC(C)(C)C(NC(=O)COc2c(F)c(F)c(F)c(F)c2F)C(=O)NC2CC(C)(C)NC(C)(C)C2)cc1` (stereo not shown) [Analog M-1486, F5po-Pen(Mbzl)-Atmp] the “PC3 In vivo % inhib.” value [1] was 21% and the pIC50 [2] was 5.38.

In the case of `Cc1ccc(CSC(C)(C)C(NC(=O)C23CC4CC(CC(C4)C2)C3)C(=O)NC2CC(C)(C)NC(C)(C)C2)cc1` (stereo not shown) [Analog M-1492, Aca-Pen(Mbzl)-Atmp], the “PC3 In vivo % inhib.” value [1] was 15% and the pIC50 [2] was 5.47.

With `CC1(C)CC(NC(=O)C(Cc2ccc(OCc3c(Cl)cccc3Cl)cc2)NC(=O)C23CC4CC(CC(C4)C2)C3)CC(C)(C)N1` (stereo not shown) [Analog M-1494, Aca-OC2Y-Atmp] the “PC3 In vivo % inhib.” value [1] was 40% and the pIC50 [2] was 5.80.

For `CC1(C)CC(NC(=O)[C@H](Cc2ccc(C#N)cc2)NC(=O)C23CC4CC(CC(C4)C2)C3)CC(C)(C)N1` [Analog M-1496, Aca-PCNF-Atmp], the “PC3 In vivo % inhib.” value [1] was 2% and the pIC50 [2] was less than 4.22.

In the case of `Cc1ccc(CSC(C)(C)C(NC(=O)CCCc2ccc(N(CCCl)CCCl)cc2)C(=O)NC2CC(C)(C)NC(C)(C)C2)cc1` (stereo not shown) [Analog M-1498, Chl-Pen(Mbzl)-Atmp], the “PC3 In vivo % inhib.” value [1] was 20% and the pIC50 [2] was 5.46.

`Cc1ccc(CSC(C)(C)C(NC(=O)C=Cc2cc(F)cc(F)c2F)C(=O)NC2CC(C)(C)NC(C)(C)C2)cc1` (stereo not shown) [Analog M-1502, F3c-Pen(Mbzl)-Atmp] was tested, and the “PC3 In vivo % inhib.” value [1] was 11% and the pIC50 [2] was 5.47.

In the case of `COc1ccc2cc(C(C)C(=O)NC(C(=O)NC3CC(C)(C)NC(C)(C)C3)C(C)(C)SCc3ccc(C)cc3)ccc2c1` (stereo not shown) [Analog M-1506, Napr-Pen(Mbzl)-Atmp], the “PC3 In vivo % inhib.” value [1] was 13% and the pIC50 [2] was 5.33.

With `COc1ccc2cc(C(C)C(=O)NC(Cc3ccc(C#N)cc3)C(=O)NC3CC(C)(C)NC(C)(C)C3)ccc2c1` (stereo not shown) [Analog M-1508, Napr-PCNF-Atmp] the “PC3 In vivo % inhib.” value [1] was 45% and the pIC50 [2] was 4.64.

In the case of `Cc1ccc(CSC(C)(C)C(NC(=O)C(C)(c2ccccc2)c2ccccc2)C(=O)NC2CC(C)(C)NC(C)(C)C2)cc1` (stereo not shown) [Analog M-1510, 22Dp-Pen(Mbzl)-Atmp], the “PC3 In vivo % inhib.” value [1] was “Stim” and the pIC50 [2] was 5.38.

For `CC1(C)CC(NC(=O)[C@H](Cc2ccc(C#N)cc2)NC(=O)C(C)(c2ccccc2)c2ccccc2)CC(C)(C)N1` [Analog M-1512, 22Dp-PCNF-Atmp], the “PC3 In vivo % inhib.” value [1] was 48% and the pIC50 [2] was 4.66.

In the case of `COc1ccc2c(c1)c(CC(=O)NC(C(=O)NC1CC(C)(C)NC(C)(C)C1)C(C)(C)SCc1ccc(C)cc1)c(C)n2C(=O)c1ccc(Cl)cc1` (stereo not shown) [Analog M-1518, Indo-Pen(Mbzl)-Atmp], the “PC3 In vivo % inhib.” value [1] was “Stim” and the pIC50 [2] was 5.22.

With `COc1ccc2c(c1)c(CC(=O)N[C@@H](Cc1ccc(C#N)cc1)C(=O)NC1CC(C)(C)NC(C)(C)C1)c(C)n2C(=O)c1ccc(Cl)cc1` [Analog M-1520, Indo-PCNF-Atmp] the “PC3 In vivo % inhib.” value [1] was “Stim” and the pIC50 [2] was 4.89.

In the case of `Cc1ccc(CSC(C)(C)C(NC(=O)c2cnccn2)C(=O)NC2CC(C)(C)NC(C)(C)C2)cc1` (stereo not shown) [Analog M-1522, 2Pyz-Pen(Mbzl)-Atmp], the “PC3 In vivo % inhib.” value [1] was “Stim” and the pIC50 [2] was 4.51.

For `CC1(C)CC(NC(=O)C(Cc2ccc(OCc3c(Cl)cccc3Cl)cc2)NS(=O)(=O)c2ccc(OC(F)(F)F)cc2)CC(C)(C)N1` (stereo not shown) [Analog M-1536, 4Tmbs-OC2Y-Atmp], the “PC3 In vivo % inhib.” value [1] was “Stim” and the pIC50 [2] was 5.49.

`CC1(C)CC(NC(=O)C(Cc2ccc(OCc3c(Cl)cccc3Cl)cc2)NC(=O)c2ccc(OC(F)(F)F)cc2)CC(C)(C)N1` (stereo not shown) [Analog M-1538, 4Tfmb-OC2Y-Atmp] was tested, and the “PC3 In vivo % inhib.” value [1] was “Stim” and the pIC50 [2] was 5.74.
